What was measured:
AM1 receptor = target: T1, AM1 receptor (Homo sapiens, UniProt O60895+Q16602); assay: TR-FRET cAMP accumulation, AM1 receptor cross-screen; assay type: cell-based; details: Table 2; read-out: pIC50 AM1 (converted)
T1 construct: expressed in transfected cells; host or cells: GPCR/RAMP-overexpressing cells; the AM1 line itself is not described
Procedure: (§1) The ability of the compounds to inhibit cAMP production induced by an EC50 concentration of the maximum agonist activation (information previously published[34]) in GPCR/RAMP-overexpressing cells (i.e., AM2, CGRP cells) was evaluated using cAMP accumulation assays. Each compound was tested at 8 full-log concentrations (10^–11–10^–5 M) including a negative control (blank). The total cAMP was measured using the TR-FRET LANCE cAMP detection kit (PerkinElmer, AD0264), as described previously.[34] Briefly, frozen cells ([…]) were thawed and prepared in warm stimulation buffer (1× HBSS, 5 mM N-(2-hydroxyethyl)piperazine-N′-ethanesulfonic acid (HEPES), 0.5 mM IBMX, and 0.1% bovine serum albumin (BSA)). Alexa Fluor conjugated anti-cAMP (1:100 concentration) was then added to the cell suspension, and cells were plated (2500 cells, 6 μL) in a 384-well white opaque microtiter plate (OptiPlates, PerkinElmer, 6007299). […] Subsequently, a 12 μL detection mix (Europium-Chelate streptavidin/biotinylated cAMP) was added to stop the reaction and induce cell lysis. TR-FRET was detected after an hour of incubation by an EnSight multimode Plate reader (PerkinElmer) at 320/340 nm excitation and 615/665 nm emission. Data were normalized to agonist only and blank (stimulation buffer only) wells as 0 and 100% cAMP inhibition, respectively.
The final DMSO concentration was below 0.5%, and this was kept consistent in all of the wells, including agonist alone and blank. The same methodology including the number of cells was used for all cell lines. […] No further constraints in any parameters of the curves were used.

AM2 receptor = AM2 receptor (Homo sapiens, UniProt O60896+Q16602); assay: TR-FRET cAMP accumulation, inhibition of agonist-induced cAMP in AM2 receptor-overexpressing cells; assay type: cell-based; details: supplementary CSV; read-out: pIC50 AM2R (converted)
Procedure: as §1, with “respectively. […]” for “respectively.”

CGRP receptor = CGRP receptor (Homo sapiens, UniProt O60894+Q16602); assay: TR-FRET cAMP accumulation, inhibition of agonist-induced cAMP in CGRP receptor-overexpressing cells; assay type: cell-based; details: supplementary CSV; read-out: pIC50 CGRPR (converted)
Procedure: as §1, with “respectively. […]” for “respectively.”

MDA-MB-231 cells = assay: Real-Time-Glo MT viability assay; assay type: cell-based, human; details: 10 μM, daily treatment, after 3 days, versus vehicle-treated controls
Procedure: Cell viability in human breast cancer cells (MDA-MB-231) was quantified using Real-Time-Glo MT Cell Viability Assay (Promega, G9712) as previously described.[34] Cells (2000 cells) were seeded into 96-well white clear-bottom plates (Corning, 3903) in full serum media overnight before washing and changing to suboptimal media (RPMI + 5% FBS + 1% P/S) containing Real-Time-Glo reagents according to the Promega protocol. A baseline luminescence read (prior to treatment) was taken using an EnSight Multimode Plate Reader (PerkinElmer) after an hour of incubation at 37 °C. Cells were then treated with compounds or vehicle control (PBS + 0.05% DMSO) daily. Results were normalized to vehicle-treated controls as 100% viable (Graphpad Prism 7 and 8).

MDA-MB-231 tumor = assay: Subcutaneous MDA-MB-231 xenograft in BALB/c nude mice; assay type: in vivo
Procedure: The study was performed using 6–7 week old BALB/c nude female mice, with a weight range of 15–20 g. Animals were provided by Envigo Corporation (Cambridgeshire, U.K.) or Charles River Laboratories (Massachusetts) depending on availability. Each experiment started with 10 mice (experimental units) in each experimental/control group. Subsequent analysis (tumor growth and histology) was only performed in animals where tumors had established and were palpable within 3 days of implantation. This was in accordance with the power calculation performed to ensure robust statistical analysis by the University of Sheffield Statistical Service. The animals were housed in individually ventilated cages (with the appropriate bedding and flooring conditions) in environmentally controlled conditions with a 12 h light/dark cycles at ∼26 °C. Mice had access to an adequate amount of water and a 2018 Teklad Global 18% Protein Rodent Diet containing 1.01% calcium (Harlan Laboratories, U.K.). The day-to-day care of the animals was carried out by the technicians in the Biological Services (The University of Sheffield, U.K.). All scientific procedures on animals were carried under the U.K. Home Office Project Licenses (40/3499) and Procedure Individual Licenses.
Compounds were dissolved in DMSO (Sigma-Aldrich, D4540) and sonicated at 37 °C for 10 min. The appropriate volume of solvent (Kolliphor HS15 (1 part, grams), Kollisolv PEG E 400 (3 parts, mL), and PBS (6 parts, mL)) was then added to yield a 6% DMSO/94% solvent solution. These working stocks (8 mg/mL) were further sonicated at 37 °C for 10 min before storing at −20 °C. To make treatment aliquots, equal amounts of the working stock (or vehicle control) and solvent were mixed and sonicated at 37 °C for 10 min (4 mg/mL, equivalent to 20 mg/kg, 3% DMSO/97% solvent). Vehicle control and compounds were sonicated at 37 °C for 10 min prior to ip injections (200 μL per mouse).
Cells were prepared according to standard cell culture techniques. Cell pellets were resuspended in 50% PBS/50% Matrigel (Corning, 354234). Matrigel/PBS cell suspension, needles (25G), and syringes (1 mL) were kept on ice before and during tumor inoculation into mice. Cell suspension (100 μL, 5 × 10^6 cells) was injected subcutaneously into the left flank of 6–7 weeks old female immunodeficient nude athymic mice (BALB/c nude). Once the tumors became palpable (around 100 mm^3), mice were randomized into treatment groups. Mice were treated daily at the same time of the day with an ip injection of 20 mg/kg of compound or vehicle control (200 μL per mouse) until humane end point. […] Tumor size and mouse weights were measured twice a week. At the end of each study, the animals were euthanized following the appropriate procedures listed in the ASPA Act 1986. Vital organs and tumors were stored in 10% neutral-buffered formalin for further histological analysis. The primary experimental outcome was tumor volume. The percentage tumor volume was calculated by normalizing measured tumor volumes to the initial tumor volume prior to the start of treatment on day 5. Simple linear regression was done to compare the line of best fit between the growth curves. Blinding was not used for the in vivo studies.

CGRP = system: CGRP; parameters: method as in PMID 24900170, PMID 16161996; details: cited from earlier work

T1 sequence (Q16602 23-461): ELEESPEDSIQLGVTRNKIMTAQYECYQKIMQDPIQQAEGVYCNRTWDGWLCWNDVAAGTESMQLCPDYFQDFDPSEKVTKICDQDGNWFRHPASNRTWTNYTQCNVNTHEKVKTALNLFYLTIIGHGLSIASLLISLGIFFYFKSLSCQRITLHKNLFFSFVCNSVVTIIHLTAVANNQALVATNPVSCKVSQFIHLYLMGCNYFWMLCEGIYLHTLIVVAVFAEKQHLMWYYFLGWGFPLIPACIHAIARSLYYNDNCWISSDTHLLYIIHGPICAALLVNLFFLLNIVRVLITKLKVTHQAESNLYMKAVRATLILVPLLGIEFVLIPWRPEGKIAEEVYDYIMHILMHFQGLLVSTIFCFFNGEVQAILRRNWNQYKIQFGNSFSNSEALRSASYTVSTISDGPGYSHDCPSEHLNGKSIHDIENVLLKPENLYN
T1 sequence (O60895 43-175): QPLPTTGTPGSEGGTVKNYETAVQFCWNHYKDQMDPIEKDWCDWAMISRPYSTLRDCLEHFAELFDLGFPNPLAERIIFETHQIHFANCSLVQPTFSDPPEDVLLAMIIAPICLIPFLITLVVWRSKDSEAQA
Chain of AM2 receptor (Q16602 23-461): as the sequence (Q16602 23-461) above
Chain of AM2 receptor (O60896 24-148): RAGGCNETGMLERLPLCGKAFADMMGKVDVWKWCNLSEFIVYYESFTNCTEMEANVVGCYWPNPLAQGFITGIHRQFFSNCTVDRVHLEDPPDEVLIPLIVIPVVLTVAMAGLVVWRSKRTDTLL
Chain of CGRP receptor (Q16602 23-461): as the sequence (Q16602 23-461) above
Chain of CGRP receptor (O60894 27-148): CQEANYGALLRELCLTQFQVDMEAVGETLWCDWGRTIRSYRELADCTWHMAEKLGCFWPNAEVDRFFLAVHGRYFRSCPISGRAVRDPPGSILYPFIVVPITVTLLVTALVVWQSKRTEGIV

IC50 (AM1 receptor) [µM]	SMILES	also measured
> 10	CN1CCCC(CN(CC(=O)Nc2ccc3c(c2)CC2(C3)C(=O)Nc3ncccc32)C(=O)C(C)(C)C)C1 (racemic) [(±)-6, N-((1-Methylpiperidin-3-yl)methyl)-N-(2-oxo-2-((2′-oxo-1,1′,2′,3-tetrahydrospiro[indene-2,3′-pyrrolo[2,3-b]pyridin]-5-yl)amino)ethyl)pivalamide]	
> 10	CC(N)c1ccccc1CN(CC(=O)Nc1ccc2c(c1)CC1(C2)C(=O)Nc2ncccc21)C(=O)C(C)(C)C (racemic) [(±)-29, N-(2-(1-Aminoethyl)benzyl)-N-(2-oxo-2-((2′-oxo-1,1′,2′,3-tetrahydrospiro[indene-2,3′-pyrrolo[2,3-b]pyridin]-5-yl)amino)ethyl)pivalamide]	
50.1	CC(C)(C)C(=O)N(CC(=O)Nc1ccc2c(c1)CC1(C2)C(=O)Nc2ncccc21)Cc1ccccn1 (stereo not shown) [Compound 5, N-(2-Oxo-2-((2′-oxo-1,1′,2′,3-tetrahydrospiro[indene-2,3′-pyrrolo[2,3-b]pyridin]-5-yl)amino)ethyl)-N-(pyridin-2-ylmethyl)pivalamide]	
25.1	CC(C)(C)C(=O)N(CC(=O)Nc1ccc2c(c1)CC1(C2)C(=O)Nc2ncccc21)Cc1nccs1 (stereo not shown) [Compound 8, N-(2-Oxo-2-((2′-oxo-1,1′,2′,3-tetrahydrospiro[indene-2,3′-pyrrolo[2,3-b]pyridin]-5-yl)amino)ethyl)-N-(thiazol-2-ylmethyl)pivalamide]	
7.94	CC(C)(C)C(=O)N(CC(=O)Nc1ccc2c(c1)CC1(C2)C(=O)Nc2ncccc21)Cc1ccccc1CN (stereo not shown) [Compound 12, N-(2-(Aminomethyl)benzyl)-N-(2-oxo-2-((2′-oxo-1,1′,2′,3-tetrahydrospiro[indene-2,3′-pyrrolo[2,3-b]pyridin]-5-yl)amino)ethyl)pivalamide]	
1.26	CC(C)(C)C(=O)N(CC(=O)Nc1ccc2c(c1)CC1(C2)C(=O)Nc2ncccc21)Cc1ccccc1CO (stereo not shown) [Compound 13, N-(2-(Hydroxymethyl)benzyl)-N-(2-oxo-2-((2′-oxo-1,1′,2′,3-tetrahydrospiro[indene-2,3′-pyrrolo[2,3-b]pyridin]-5-yl)amino)ethyl)pivalamide]	
6.31	CC(C)(C)C(=O)N(CC(=O)Nc1ccc2c(c1)CC1(C2)C(=O)Nc2ncccc21)Cc1ccccc1C(N)=O (stereo not shown) [Compound 15, 2-((N-(2-Oxo-2-((2′-oxo-1,1′,2′,3-tetrahydrospiro[indene-2,3′-pyrrolo[2,3-b]pyridin]-5-yl)amino)ethyl)pivalamido)methyl)benzamide]	
	CC(C)(C)C(=O)N(CC(=O)Nc1ccc2c(c1)CC1(C2)C(=O)Nc2ncccc21)Cc1ccccc1CNCc1ncc[nH]1 (stereo not shown) [Compound 23, N-(2-((((1H-Imidazol-2-yl)methyl)amino)methyl)benzyl)-N-(2-oxo-2-((2′-oxo-1,1′,2′,3-tetrahydrospiro[indene-2,3′-pyrrolo[2,3-b]pyridine]-5-yl)amino)ethyl)pivalamide]	IC50 (AM2 receptor): 0.251 µM; IC50 (CGRP receptor): 0.00398 µM
3.16	CC(C)(C)C(=O)N(CC(=O)Nc1ccc2c(c1)CC1(C2)C(=O)Nc2ncccc21)Cc1ccccc1CNC1CC1 (stereo not shown) [Compound 26, N-(2-((Cyclopropylamino)methyl)benzyl)-N-(2-oxo-2-((2′-oxo-1,1′,2′,3-tetrahydrospiro[indene-2,3′-pyrrolo[2,3-b]pyridin]-5-yl)amino)ethyl)pivalamide]	
2	CC(C)(C)C(=O)N(CC(=O)Nc1ccc2c(c1)CC1(C2)C(=O)Nc2ncccc21)Cc1ccccc1CN1CCC1 (stereo not shown) [Compound 27, N-(2-(Azetidin-1-ylmethyl)benzyl)-N-(2-oxo-2-((2′-oxo-1,1′,2′,3-tetrahydrospiro[indene-2,3′-pyrrolo[2,3-b]pyridine]-5-yl)amino)ethyl)pivalamide]	
	O=C(CN1C(=O)C2(CCCC2)NC[C@H]1c1cc(F)cc(F)c1)Nc1ccc2c(c1)C[C@@]1(C2)C(=O)Nc2ncccc21 [MK-3207]	CGRP potency (CGRP): 0.00012 µM

SMILES	IC50 (AM1 receptor) [µM]	also measured
CNCc1ccccc1CN(CC(=O)Nc1ccc2c(c1)CC1(C2)C(=O)Nc2ncccc21)C(=O)C(C)(C)C (stereo not shown) [Compound 25]	2	decrease of MDA-MB-231 viability (MDA-MB-231 cells): 55%; tumor growth rates (MDA-MB-231 tumor; 20 mg/kg ip daily, simple linear regression, p < 0.001): significantly reduced; adverse effects (MDA-MB-231 tumor; 20 mg/kg ip once daily): No adverse effects were observed; body weight compared with vehicle-treated mice (MDA-MB-231 tumor; 20 mg/kg ip once daily): did not differ significantly; tolerability (MDA-MB-231 tumor; 20 mg/kg ip once daily): well tolerated; decrease of breast cancer xenograft tumor growth (MDA-MB-231 tumor; 20 mg/kg ip once daily, 4 weeks after treatment, versus vehicle): 47%

From PMC8006142 (Journal of Medicinal Chemistry, 2021)
